MIC and Ratio data for two compounds are collected here from ChEMBL document CHEMBL1144409, “Synthesis of new quinoxaline-2-carboxylate 1,4-dioxide derivatives as anti-Mycobacterium tuberculosis agents” (J Med Chem, 2005).

SMILES strings stand for the structures. Values after ≈ are worked out from the molar mass of the structure shown.

What all share (type): functional
Assay [1] relates to Mycobacterium tuberculosis. Kind of assay: In vitro minimum inhibitory concentration value against rifampin resistant Mycobacterium tuberculosis in alamar assay.
For assay [2], the system named is Mycobacterium tuberculosis. Kind of assay: In vitro minimum inhibitory concentration value against ethambutol resistant Mycobacterium tuberculosis in alamar assay.
The subject of assay [3] is Mycobacterium tuberculosis. Kind of assay: In vitro minimum inhibitory concentration value against ethionamide resistant Mycobacterium tuberculosis in alamar assay.
Assay [4] concerns Mycobacterium tuberculosis. Kind of assay: Ratio of the MIC value of the Mycobacterium tuberculosis kanamycin resistant strain to H37Rv strain was determined.
In assay [5] the test system is Mycobacterium tuberculosis. Kind of assay: In vitro minimum inhibitory concentration value against ciprofloxacin resistant Mycobacterium tuberculosis in alamar assay.
The test system of assay [6] is Mycobacterium tuberculosis. Kind of assay: Ratio of the MIC value of the Mycobacterium tuberculosis ethionamide resistant strain to H37Rv strain was determined.
The subject of assay [7] is Mycobacterium tuberculosis. Kind of assay: Ratio of the MIC value of the Mycobacterium tuberculosis isoniazid resistant strain to H37Rv strain was determined.
The test system of assay [8] is Mycobacterium tuberculosis. Kind of assay: Ratio of the MIC value of the Mycobacterium tuberculosis rifampin resistant strain to H37Rv strain was determined.
Assay [9] deals with Mycobacterium tuberculosis. Description: In vitro minimum inhibitory concentration value against kanamycin resistant Mycobacterium tuberculosis in alamar assay.
Assay [10] deals with Mycobacterium tuberculosis. Description: Ratio of the MIC value of the Mycobacterium tuberculosis ciprofloxacin resistant strain to H37Rv strain was determined.
The test system of assay [11] is Mycobacterium tuberculosis. Description: Ratio of the MIC value of the Mycobacterium tuberculosis thiacetazone resistant strain to H37Rv strain was determined.
The subject of assay [12] is Mycobacterium tuberculosis. Kind of assay: In vitro minimum inhibitory concentration value against isoniazid resistant Mycobacterium tuberculosis in alamar assay.
Assay [13] concerns Mycobacterium tuberculosis. Description: Ratio of the MIC value of the Mycobacterium tuberculosis ethambutol resistant strain to H37Rv strain was determined.
Assay [14] deals with Mycobacterium tuberculosis. Description: In vitro minimum inhibitory concentration value against thiacetazone resistant Mycobacterium tuberculosis in alamar assay.

Take `CCc1c(C(=O)OC)[n+]([O-])c2cc(C)c(C)cc2[n+]1[O-]`: the minimum inhibitory concentration (MIC) in assay [1] came out at 0.39 µg/mL (≈ 1.41 µM); in assay [2], 0.78 µg/mL (≈ 2.82 µM); in assay [3] it was 0.78 µg/mL (≈ 2.82 µM); in assay [5], 0.39 µg/mL (≈ 1.41 µM); in assay [9], 0.39 µg/mL (≈ 1.41 µM); in assay [12] it was 1.56 µg/mL (≈ 5.65 µM). In addition, in [14], the MIC came to 0.78 µg/mL (≈ 2.82 µM). For the same compound, the Ratio in assay [4] turned out to be 1 µg/mL; in assay [6], 2 µg/mL; in [7] it was 4 µg/mL; in assay [8], 1 µg/mL; in assay [10], 1 µg/mL; in assay [11] it was 2 µg/mL. In assay [13], the Ratio amounted to 2 µg/mL.

As to `COC(=O)c1c(Cc2ccccc2)[n+]([O-])c2cc(Cl)c(Cl)cc2[n+]1[O-]`, the minimum inhibitory concentration (MIC) was at most 3.13 µg/mL in [1]; at most 3.13 µg/mL in assay [2]; 6.25 µg/mL (≈ 16.5 µM) in assay [3]; 12.5 µg/mL (≈ 33 µM) in assay [5]; at most 3.13 µg/mL in [9]; 6.25 µg/mL (≈ 16.5 µM) in assay [12]. The compound further registered a minimum inhibitory concentration (MIC) in assay [14] of at most 3.13 µg/mL. Also, the Ratio in assay [4] is 1 µg/mL; in [6] it was “>=2 ug ml-1”; in assay [7], “>=2 ug ml-1”; in [8], 1 µg/mL; in assay [10], “>=3.99 ug ml-1”; in assay [11], 1 µg/mL. For the same compound, the Ratio in assay [13] stood at 1 µg/mL.
